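Each compound was tested at five concentrations against cells in 96-well plates for 48 hours. The concentration for 50% growth inhibition is given as GI50.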 The source made the active and inactive calls. No stated cut-off is given here; in the data, active = GI50 up to about 1.1 µM and inactive = higher. Where a SMILES comes first, the peptide text is derived from it. [ ]: non-standard residue; d: D form. The star is where a group is joined. mTyr = N[CH](Cc1cccc(O)c1)C(=O)O; Cbz = O=C(OCc1ccccc1)*; OBn = c1ccc(CO*)cc1
Columns and labels:
Assay in all cases: growth of human tumour cells (NCI), 48 h
786-0 = system: 786-0
A498 = system: A498
ACHN = system: ACHN
BT-549 = system: BT-549
COLO 205 = system: COLO 205
HCT-15 = system: HCT-15
K562 = system: K562
MDA-MB-435 = system: MDA-MB-435
MDA-N = system: MDA-N
Malme-3M = system: Malme-3M
OVCAR-3 = system: OVCAR-3
PC-3 = system: PC-3
RPMI-8226 = system: RPMI-8226
SK-MEL-28 = system: SK-MEL-28
SK-MEL-5 = system: SK-MEL-5
T47D = system: T47D
TK-10 = system: TK-10
UO-31 = system: UO-31
HOP-92 = system: HOP-92
SF-539 = system: SF-539

Row | SMILES | GI50 (786-0) | GI50 (A498) | GI50 (ACHN) | GI50 (BT-549) | GI50 (COLO 205) | GI50 (HCT-15) [µM] | GI50 (K562) | GI50 (MDA-MB-435) | GI50 (MDA-N) | GI50 (Malme-3M) | GI50 (OVCAR-3) | GI50 (PC-3) | GI50 (RPMI-8226) | GI50 (SK-MEL-28) | GI50 (SK-MEL-5) | GI50 (T47D) | GI50 (TK-10) | GI50 (UO-31) | GI50 (HOP-92) | GI50 (SF-539)
1 | CCSCCCC(=O)O | > 100 µM (inactive) | > 100 µM (inactive) | > 100 µM (inactive) | > 100 µM (inactive) | > 100 µM (inactive) | > 100 | > 100 µM (inactive) | > 100 µM (inactive) | > 100 µM (inactive) | > 100 µM (inactive) | > 100 µM (inactive) | > 100 µM (inactive) | > 100 µM (inactive) | > 100 µM (inactive) | > 100 µM (inactive) | > 100 µM (inactive) | > 100 µM (inactive) | > 100 µM (inactive) |  | 
2 | CCOC(=O)C(NC(=O)CC)(Nc1ccc(S(=O)(=O)Nc2onc(C)c2C)cc1)C(F)(F)F (stereo not drawn) | > 100 µM (inactive) |  | > 100 µM (inactive) | > 100 µM (inactive) | > 100 µM (inactive) | > 100 | > 100 µM (inactive) | > 100 µM (inactive) | > 100 µM (inactive) | > 100 µM (inactive) | > 100 µM (inactive) | > 100 µM (inactive) | > 100 µM (inactive) | > 100 µM (inactive) | > 100 µM (inactive) | > 100 µM (inactive) |  | > 100 µM (inactive) | > 100 µM (inactive) | > 100 µM (inactive)
3 | CN1CCN(CCCN)CC1 | > 100 µM (inactive) | > 100 µM (inactive) | > 100 µM (inactive) | > 100 µM (inactive) | > 100 µM (inactive) | > 100 | > 100 µM (inactive) | > 100 µM (inactive) | > 100 µM (inactive) | > 100 µM (inactive) | > 100 µM (inactive) | > 100 µM (inactive) | > 100 µM (inactive) | > 100 µM (inactive) | > 100 µM (inactive) | > 100 µM (inactive) | > 100 µM (inactive) | > 100 µM (inactive) |  | 
4 | O=C(NCCN1CCOCC1)c1cn2c(ccc3sc4ccccc4c(=O)c32)n1 | 13.6 µM (inactive) | 17.3 µM (inactive) | 5.36 µM (inactive) | 27.8 µM (inactive) | 7.24 µM (inactive) | 10.3 | 9.86 µM (inactive) | 16.4 µM (inactive) | 28.3 µM (inactive) | 22.7 µM (inactive) | > 100 µM (inactive) | 20.1 µM (inactive) | 8.24 µM (inactive) | 46.9 µM (inactive) | 9.77 µM (inactive) |  | > 100 µM (inactive) | > 100 µM (inactive) | 12.8 µM (inactive) | 45.3 µM (inactive)
5 | O=Cc1ccc2[nH]c(=O)oc2c1 | > 100 µM (inactive) | > 100 µM (inactive) | > 100 µM (inactive) | > 100 µM (inactive) | > 100 µM (inactive) | > 100 | > 100 µM (inactive) | > 100 µM (inactive) | > 100 µM (inactive) | > 100 µM (inactive) | > 100 µM (inactive) | > 100 µM (inactive) | > 100 µM (inactive) | > 100 µM (inactive) |  |  | > 100 µM (inactive) | 23.1 µM (inactive) |  | > 100 µM (inactive)
6 | CCCCCCn1c(SC)nc(COC(=O)NC)c1COC(=O)NC | 15.3 µM (inactive) | 16.3 µM (inactive) | 16.6 µM (inactive) | 19.5 µM (inactive) | 15.8 µM (inactive) | 32.4 | 19.3 µM (inactive) | 19.7 µM (inactive) | 19.2 µM (inactive) |  | 17.9 µM (inactive) | 15.1 µM (inactive) | 22.4 µM (inactive) | 17.7 µM (inactive) | 16.6 µM (inactive) | 17.7 µM (inactive) | 16.7 µM (inactive) | 16.9 µM (inactive) |  | 17.6 µM (inactive)
7 | COc1ccc(-c2c(N)n(-c3cccc(C(=O)O)c3)c(=O)c3cc([N+](=O)[O-])ccc23)cc1 | > 100 µM (inactive) | > 100 µM (inactive) | > 100 µM (inactive) | > 100 µM (inactive) |  | > 100 | > 100 µM (inactive) | > 100 µM (inactive) | > 100 µM (inactive) |  | > 100 µM (inactive) | > 100 µM (inactive) | > 100 µM (inactive) | > 100 µM (inactive) | > 100 µM (inactive) | > 100 µM (inactive) | > 100 µM (inactive) | > 100 µM (inactive) |  | > 100 µM (inactive)
8 | O=C1CNc2cc(N3CCOCC3)ccc2N1 | > 100 µM (inactive) | 60.7 µM (inactive) | > 100 µM (inactive) | > 100 µM (inactive) | > 100 µM (inactive) | > 100 | > 100 µM (inactive) | > 100 µM (inactive) |  | > 100 µM (inactive) | > 100 µM (inactive) | > 100 µM (inactive) | > 100 µM (inactive) | > 100 µM (inactive) | > 100 µM (inactive) | > 100 µM (inactive) | > 100 µM (inactive) | > 100 µM (inactive) | > 100 µM (inactive) | 
9 | O=C(O)CNn1c(SCC(=O)O)nnc(/C=C/c2c(O)ccc3ccccc23)c1=O | 30.3 µM (inactive) | 32.7 µM (inactive) | 33.8 µM (inactive) | 15 µM (inactive) | 34.4 µM (inactive) | 17.6 | 25.5 µM (inactive) | 75.7 µM (inactive) | 48.4 µM (inactive) | 40.3 µM (inactive) | 22.7 µM (inactive) | 77.3 µM (inactive) | 29.8 µM (inactive) | 34.3 µM (inactive) | 18.7 µM (inactive) | 19.5 µM (inactive) |  | 29.4 µM (inactive) |  | > 100 µM (inactive)
10 | CCn1c2ccccc2c2ccc(C3C(C(=O)OC)=C(C)NC(C)=C3C(=O)OC)cc21 | 38.2 µM (inactive) | 19.8 µM (inactive) | 38.8 µM (inactive) | 49.3 µM (inactive) | 48.5 µM (inactive) | 46.3 | 41.7 µM (inactive) | 45.6 µM (inactive) | 37.8 µM (inactive) | 20 µM (inactive) | 33.3 µM (inactive) |  | 21.1 µM (inactive) | 70.1 µM (inactive) | 43.6 µM (inactive) | 63.8 µM (inactive) | 59.2 µM (inactive) | 39 µM (inactive) |  | 30.2 µM (inactive)
11 | COC(=O)CNC(=O)Nc1cc(N2C(=O)ON3C2C(C)(C)N(O)C3(C)C)ccc1C (stereo not drawn) | > 100 µM (inactive) |  | > 100 µM (inactive) | > 100 µM (inactive) | > 100 µM (inactive) | 66.5 | > 100 µM (inactive) | > 100 µM (inactive) | > 100 µM (inactive) | > 100 µM (inactive) | > 100 µM (inactive) | > 100 µM (inactive) |  | > 100 µM (inactive) | > 100 µM (inactive) | > 100 µM (inactive) | > 100 µM (inactive) | > 100 µM (inactive) |  | > 100 µM (inactive)
12 | CC(=O)O[C@H]1CC2C(C3CCC(C(C)CCC(N)=O)[C@]31C)[C@H](OC(C)=O)C[C@@H]1CC3(CC[C@]21C)OOC1(CC[C@]2(C)C4C[C@H](OC(C)=O)[C@]5(C)C(C(C)CCC(N)=O)CCC5C4[C@H](OC(C)=O)C[C@@H]2C1)OO3 (stereo partly drawn) | 1.55 µM (inactive) |  | 1.62 µM (inactive) | 1.2 µM (inactive) | 1.11 µM (active) | 1.48 | 1.76 µM (inactive) | 1.4 µM (inactive) | 1.65 µM (inactive) | 2.61 µM (inactive) | 1.42 µM (inactive) | 1.41 µM (inactive) | 1.22 µM (inactive) |  | 1.33 µM (inactive) |  | 1.8 µM (inactive) | 1.13 µM (inactive) |  | 
13 | CN1CCN(c2nc3cc(F)ccc3n3cccc23)CC1 | 40.4 µM (inactive) |  | 31.6 µM (inactive) | 49.2 µM (inactive) | 26.9 µM (inactive) | 32.1 | 20.4 µM (inactive) | 23.4 µM (inactive) | 30.4 µM (inactive) | 25.3 µM (inactive) | 82.8 µM (inactive) | 28.4 µM (inactive) | 40.6 µM (inactive) | 21.4 µM (inactive) | 20.6 µM (inactive) | 29 µM (inactive) | 39.6 µM (inactive) | 40.1 µM (inactive) | 30.2 µM (inactive) | 21.1 µM (inactive)
14 | Nc1cc(OCC2CCCCC2)nc(N)n1 | > 100 µM (inactive) |  | > 100 µM (inactive) | > 100 µM (inactive) | 87.3 µM (inactive) | > 100 | > 100 µM (inactive) | > 100 µM (inactive) | > 100 µM (inactive) | > 100 µM (inactive) | > 100 µM (inactive) | > 100 µM (inactive) | > 100 µM (inactive) | > 100 µM (inactive) | 37.5 µM (inactive) |  | > 100 µM (inactive) | > 100 µM (inactive) | > 100 µM (inactive) | > 100 µM (inactive)
15 | C/C(=N\N=C(/S)SCc1ccccc1)c1ccccn1 | < 0.01 µM (active) | 1.41 µM (inactive) | < 0.01 µM (active) | 1.13 µM (inactive) | < 0.01 µM (active) | < 0.01 | < 0.01 µM (active) | 1.02 µM (active) | 0.971 µM (active) | 0.665 µM (active) | < 0.01 µM (active) | < 0.01 µM (active) | < 0.01 µM (active) |  | 0.0635 µM (active) |  | 0.339 µM (active) | 0.0183 µM (active) | < 0.0105 µM (active) | 0.303 µM (active)
16 | COC(=O)C(Cc1cccc(O)c1)NC(=O)C(CC(=O)OCc1ccccc1)NC(=O)OCc1ccccc1 (stereo not drawn) (Cbz-Asp(OBn)-[mTyr]-OMe; configuration not given here) | > 100 µM (inactive) | > 100 µM (inactive) | 63.5 µM (inactive) | > 100 µM (inactive) | > 100 µM (inactive) | > 100 | > 100 µM (inactive) |  | > 100 µM (inactive) | > 100 µM (inactive) |  | > 100 µM (inactive) | 70.5 µM (inactive) | > 100 µM (inactive) | > 100 µM (inactive) | 15.9 µM (inactive) | > 100 µM (inactive) | 65.3 µM (inactive) | 29.1 µM (inactive) | 

Source: ChEMBL document CHEMBL1201862, “PubChem BioAssay data set” (2004)
